# Test system: Balb/c mice
# Test: Animal study: effect on normal colonic cells (organ length, body weight, histology, symptoms)
# Conditions: control groups (negative / positive control), 12 weeks
# Protocol: Wild-type Balb/c mice were obtained from Jackson Laboratory, USA, and housed in plastic cages with free access to water and food. The mice were randomly assigned to five test groups, which included three control groups: vehicle control, negative control (100 mM sodium propionate), and positive control (AOM (Azoxymethane)/DSS). Additionally, there were two experimental groups receiving 100 mM of indoxyl sulfate, one via intraperitoneal (IP) administration and the other via intrarectal (IR) administration. Each group consisted of six mice. In the AOM/DSS group, AOM was injected intraperitoneally at a dosage of 10 mg/kg bodyweight. The AOM was injected only once on the 1st day of experiment. The positive control mice received 2% DSS for 7 days in the first week, fourth week, and seventh week. […]
# The colon was collected from each mouse for subsequent histology studies. […] Various parameters, including tumor localization (proximal or distal bowel, rectum, cecum, ileocecal valve), tumor number, cancer stage (dysplasia/adenoma or adenocarcinoma, determined by infiltration into the muscular mucosa), immune cell infiltration, and inflammation, were assessed. Bowel inflammation was evaluated by observing immune cell infiltration and the presence or absence of mucous membranes using a 10× objective. […]
compound,measurement,value
"CCC(=O)[O-].[Na+] [Propionate, sodium propionate]",Length of large intestine (mean ± SD),9.98 ± 0.67 cm
same,Length of spleen (mean ± SD),1.5 ± 0.08 cm
